Measurements as given in US7893196B2, “Polypeptides having antimicrobial activity and polynucleotides encoding same” (Novozymes Aderium Biotech A/S, priority 2004, dated 2011).

Assays:
Format in all cases: cell-based
[1] = test system: Staphylococcus aureus, ATCC 29213 (MSSA); experiment: MIC microdilution assay (NCCLS/CLSI); details: tested 0.06-32 μg/ml
Procedure: (§1) Purified Oystrisin and Piceasin were evaluated for antimicrobial activity in a microdillution assay. The Minimal Inhibitory Concentration (MIC) was determined following the NCCLS/CLSI guidelines from CLSI (Clinical and Laboratory Standards Institute).
(§2) Oystrisin and Piceasin were tested at the following concentrations: 32; 16; 8; 4; 2; 1; 0.50; 0.25; 0.13; and 0.06 μg/ml.

[2] = test system: Staphylococcus aureus, ATCC 43300 (MRSA); experiment: MIC microdilution assay (NCCLS/CLSI); details: tested 0.06-32 μg/ml
Procedure: as §1, §2

[3] = test system: Staphylococcus carnosus, ATCC 51365; experiment: MIC microdilution assay (NCCLS/CLSI); details: tested 0.06-32 μg/ml
Procedure: as §1, §2

[4] = test system: Staphylococcus epidermidis, ATCC 12228; experiment: MIC microdilution assay (NCCLS/CLSI); details: tested 0.06-32 μg/ml
Procedure: as §1, §2

[5] = test system: Streptococcus pneumoniae, ATCC 49619; experiment: MIC microdilution assay (NCCLS/CLSI); details: tested 0.06-32 μg/ml
Procedure: as §1, §2

[6] = test system: Streptococcus pyogenes, ATCC 12344; experiment: MIC microdilution assay (NCCLS/CLSI); details: tested 0.06-32 μg/ml
Procedure: as §1, §2

[7] = test system: B. subtilis ATCC 6633; experiment: Radial diffusion assay; details: up-concentrated S. cerevisiae supernatants
Procedure: (§3) The supernatants described above in Example 10 were analyzed in a radial diffusion assay following a previously published protocol for detection of antimicrobial activity (Lehrer et al. (1991), Ultra sensitive assays for endogenous antimicrobial polypeptides, J Immunol Methods 137: 167-173). Target bacteria (10^6 colony forming units (CFU)) were added to 10 ml of underlay agarose (1% low electro-endosmosis agarose, 0.03% Trypticase soy broth, 10 mM sodium phosphate, pH 7.4, 37 degrees Celsius). Suspension was solidified on an INTEGRID Petri Dish (Becton Dickinson Labware, NJ). A 3 mm Gel Puncher was used to make holes in the underlay agarose (Amersham Pharmacia Biotech, Sweden). Samples were added to the holes and incubated at 37 degrees Celsius, 3 hours. An overlay was poured on top and the plate was incubated overnight (LB media, 7.5% Agar). Antimicrobial activity was seen as bacterial clearing zones around the wells. Living cells was counterstained by adding 10 ml, 0.2 mM MTT (3-(4,5-Dimethylthiazol-2-yl)-2,5-diphenyltetrazolium bromide Thiazolyl blue). All standard protocols has been described elsewhere (Sambrook, Fritsch, and Maniatis, 1989).
(§4) The results in Table 2 show zones of inhibition of up-concentrated samples against three ATCC strains.

[8] = test system: M. luteus ATCC 9341; experiment: Radial diffusion assay; details: up-concentrated S. cerevisiae supernatants
Procedure: as §3, §4

[9] = test system: S. carnosus ATCC 51365; experiment: Radial diffusion assay; details: up-concentrated S. cerevisiae supernatants
Procedure: as §3, §4

Substance	MIC [1]	MIC [2]	MIC [3]	MIC [4]	MIC [5]	MIC [6]	zones of inhibition [7]	zones of inhibition [8]	zones of inhibition [9]
Oystrisin: the polypeptide shown as amino acids 1 to 43 of SEQ ID NO:8; Crassostrea gigas defensin (MKVFVLLTLAVLLMVSADMAFAGFGCPGNQLKCNNHCKSISCR; Crassostrea gigas)	32 µg/mL	16 µg/mL	0.5 µg/mL	32 µg/mL	0.13 µg/mL	0.03 µg/mL	–	–	–
Piceasin: the polypeptide shown as amino acids 1 to 40 of SEQ ID NO:2; Picea glauca defensin (MKFTISIIAALAFFAQGIVAAPAPIPEAAAVAAPEAEPKA; listed as Picea glauca)	>32 µg/mL	>32 µg/mL	16 µg/mL	>32 µg/mL	16 µg/mL	1 µg/mL	–	–	–
Virgisin-2: the polypeptide shown as amino acids 1 to 42 of SEQ ID NO:10; Crassostrea virginica defensin (MKVFVLLTIAVMLLVSADVATADNGCPRRPRICHNRCIYKGR; listed as Crassostrea virginica)	–	–	–	–	–	–	5 mm	0 mm	8 mm
Gibbosin: the polypeptide shown as amino acids 1 to 38 of SEQ ID NO:6; Mesobuthus gibbosus defensin (MKTIVLLFVLALVFCTLEMGMVEAGFGCPFNQGRCHRH; listed as Mesobuthus gibbosus)	–	–	–	–	–	–	8 mm	6 mm	9 mm
Virgisin-1: the polypeptide shown as amino acids 1 to 40 of SEQ ID NO:4; Crassostrea virginica defensin (MKVFVLLTIAVMLMVSADVALAGFGCPLNRYQCHSHCQSI; listed as Crassostrea virginica)	–	–	–	–	–	–	6 mm	5 mm	7 mm
